# In US9585877B2, “Methods of maintaining, treating or improving cognitive function” (Forum Pharmaceuticals, Inc., priority 2012, dated 2017):
# Assays:
# Format in all cases: in vivo, human
# [1] = system: subjects with mild-to-moderate Alzheimer's disease; assay: Clinical study, Memory composite score
# Method: (§1) A double-blind study of 3 doses of the Test Composition or placebo in subjects with mild-to-moderate Alzheimer's disease, with or without receiving a concomitant AChEI for 24 weeks (168 days) after a 7 day placebo run-in period.
# (§2) Subjects with mild to moderate Alzheimer's disease receiving stable treatment with an AChEI (donepezil or rivastigmine: ‘add-on’ subjects) or not receiving an AChEI (de novo subjects′) received 0.3, 1, or 2 mg doses of Test Composition or placebo for up to 24 weeks (168 days) of double-blind treatment, after a 7-day single-blind, placebo run-in period to assess study drug compliance. A follow-up telephone contact was conducted approximately 15 days after the last dose of study drug for questions regarding safety.
# (§3) These analyses were prespecified in the analytical plan (ITT population), and included the following: Cognition composite score (ADAS-cog Word Recall, Word Recognition, & Orientation, and COWAT and CFT), Memory composite score (ADAS-cog Word Recall, Word Recognition, and Orientation), and Executive Function composite score (COWAT and CFT).
# (§4) Composite Scores—Three composite scores were calculated: (1) Composite Cognition Score (ADAS-cog Word Recall, Word Recognition, and Orientation, COWAT and CFT); (2) Memory Composite Score (ADAS-cog Word Recall, Word Recognition, and Orientation); and (3) Executive Function Composite Score (COWAT and CFT).
# (§5) The composite score is only computed when all test scores are available.
# [2] = system: subjects with mild-to-moderate Alzheimer's disease; assay: Clinical study, Mini-Mental State Examination (MMSE)
# Method: as §1
# (§6) Total number of subjects in the safety population was 409 subjects that were dosed once-daily with a dosing-capsule for a period of 168 days. The subjects dosed, and the particular dosing, included: 104 subjects dosed with Placebo capsule; and 305 subjects dosed with Test Compound (104 subjects with 0.3 mg capsules; 101 subjects with 1 mg capsules; and 100 subjects with 2 mg capsules).
# (§7) The population included generally healthy male or female subjects, aged 50 to ≦85 years, with mild-to-moderate Alzheimer's disease, consistent with criteria defined by a Work Group of the National Institute of Neurological and Communicative Disorders and Stroke—Alzheimer's Disease and Related Disorders Association, of mild to moderate severity, with a Mini-Mental State Examination score (MMSE) 14 and ≦24, and a Clinical Dementia Rating Scale Sum of the Boxes (CDR-SB) score of 2. […] Subjects were required to be either receiving a stable dose of an AChEI (donepezil or rivastigmine) for at least 3 months before screening or not presently being treated with an AChEI or mementine for at least 30 days.
# as §2
# Mini-Mental State Examination (MMSE)
# The MMSE test employed herein is based on the procedure developed by Folstein, M., Folstein, S., McHugh, P. Mini-Mental State: “A Practical Method for Grading the Cognitive State of Patients for the Clinician”; Journal of Psychiatric Research 1975, 12:189-98.
# The MMSE test assesses and/or evaluates memory, orientation, recognition, attention, concentration, language, and praxis. The MMSE total score ranges from 0 to 30 points. Lower scores indicate a lower level of functioning. An increase from baseline indicates improvement.
# [3] = system: subjects with mild-to-moderate Alzheimer's disease; assay: Clinical study, Clinical Dementia Rating-Sum of Boxes (CDR-SB)
# Method: as §1, §6, §7, §2
# Clinical Dementia Rating-Sum of Boxes CDR-SB
# The CDR-SB test employed herein is based on the procedure developed by Hughs C D, Berg L, Danziger W L, Coben L A, and Martin R L. “A new clinical scale for the staging of dementia”; Br J Psychiatry. 1982; 140:566-572, and provides an assessment of six (6) dimensions: Memory, Orientation, Judgment and Problem Solving, Community Affairs, Home and Hobbies, and Personal Care.
# Each of the six CDR dimensions are scored separately with well-defined anchors from 0 to 3.0 (no impairment to severe illness). The total sum of boxes ranges from 0 to 18. Higher totals indicate more severe impairment. A decrease from baseline indicates improvement.
# [4] = system: subjects with mild-to-moderate Alzheimer's disease; assay: Clinical study, Cognition composite score
# Method: as §1, §2, §3, §4, §5
# [5] = 2 mg versus placebo, over a 23 week period
smiles,measurement,setting,value
"Cl.O.O=C(N[C@H]1CN2CCC1CC2)c1cc2cccc(Cl)c2s1 [Test Compound, (R)-7-chloro-N-(quinuclidin-3-yl)benzo[b]thiophene-2-carboxamide, hydrochloride, monohydrate]",Memory Composite Score (Baseline was assigned the value of zero @ Week 0),"[1]; 0.3 mg daily dose, Week 4",−0.0084
same,Memory Composite Score (Baseline was assigned the value of zero @ Week 0),"[1]; 0.3 mg daily dose, Week 12",−0.0108
same,Memory Composite Score (Baseline was assigned the value of zero @ Week 0),"[1]; 0.3 mg daily dose, Week 18",−0.0294
same,Memory Composite Score (Baseline was assigned the value of zero @ Week 0),"[1]; 0.3 mg daily dose, Week 23",−0.0645
same,Memory Composite Score (Baseline was assigned the value of zero @ Week 0),"[1]; 1 mg daily dose, Week 4",−0.0062
same,Memory Composite Score (Baseline was assigned the value of zero @ Week 0),"[1]; 1 mg daily dose, Week 12",0.08
same,Memory Composite Score (Baseline was assigned the value of zero @ Week 0),"[1]; 1 mg daily dose, Week 18",−0.0456
same,Memory Composite Score (Baseline was assigned the value of zero @ Week 0),"[1]; 1 mg daily dose, Week 23",0.0113
same,Memory Composite Score (Baseline was assigned the value of zero @ Week 0),"[1]; 2 mg daily dose, Week 4",−0.0032
same,Memory Composite Score (Baseline was assigned the value of zero @ Week 0),"[1]; 2 mg daily dose, Week 12",0.1021
same,Memory Composite Score (Baseline was assigned the value of zero @ Week 0),"[1]; 2 mg daily dose, Week 18",0.117
same,Memory Composite Score (Baseline was assigned the value of zero @ Week 0),"[1]; 2 mg daily dose, Week 23",0.169
same,Memory composite score Effect Size,[1]; [5],0.37
same,MMSE (Baseline was assigned the value of zero @ Week 0),"[2]; 0.3 mg daily dose, Week 4",−0.0411
same,MMSE (Baseline was assigned the value of zero @ Week 0),"[2]; 0.3 mg daily dose, Week 12",0.185
same,MMSE (Baseline was assigned the value of zero @ Week 0),"[2]; 0.3 mg daily dose, Week 18",−0.3601
same,MMSE (Baseline was assigned the value of zero @ Week 0),"[2]; 0.3 mg daily dose, Week 23",−0.3112
same,MMSE (Baseline was assigned the value of zero @ Week 0),"[2]; 1 mg daily dose, Week 4",0.9142
same,MMSE (Baseline was assigned the value of zero @ Week 0),"[2]; 1 mg daily dose, Week 12",0.7836
same,MMSE (Baseline was assigned the value of zero @ Week 0),"[2]; 1 mg daily dose, Week 18",0.7253
same,MMSE (Baseline was assigned the value of zero @ Week 0),"[2]; 1 mg daily dose, Week 23",0.4416
same,MMSE (Baseline was assigned the value of zero @ Week 0),"[2]; 2 mg daily dose, Week 4",0.5262
same,MMSE (Baseline was assigned the value of zero @ Week 0),"[2]; 2 mg daily dose, Week 12",0.3526
same,MMSE (Baseline was assigned the value of zero @ Week 0),"[2]; 2 mg daily dose, Week 18",0.723
same,MMSE (Baseline was assigned the value of zero @ Week 0),"[2]; 2 mg daily dose, Week 23",0.5139
same,MMSE Effect Size,[2]; 2 mg dose versus Placebo,0.21
same,CDR-SB (Baseline was assigned the value of zero @ Week 0),"[3]; 0.3 mg daily dose, Week 4",0.0026
same,CDR-SB (Baseline was assigned the value of zero @ Week 0),"[3]; 0.3 mg daily dose, Week 12",0.0542
same,CDR-SB (Baseline was assigned the value of zero @ Week 0),"[3]; 0.3 mg daily dose, Week 18",0.2325
same,CDR-SB (Baseline was assigned the value of zero @ Week 0),"[3]; 0.3 mg daily dose, Week 23",0.4427
same,CDR-SB (Baseline was assigned the value of zero @ Week 0),"[3]; 1 mg daily dose, Week 4",−0.2365
same,CDR-SB (Baseline was assigned the value of zero @ Week 0),"[3]; 1 mg daily dose, Week 12",−0.0811
same,CDR-SB (Baseline was assigned the value of zero @ Week 0),"[3]; 1 mg daily dose, Week 18",−0.0424
same,CDR-SB (Baseline was assigned the value of zero @ Week 0),"[3]; 1 mg daily dose, Week 23",0.1214
same,CDR-SB (Baseline was assigned the value of zero @ Week 0),"[3]; 2 mg daily dose, Week 4",−0.1361
same,CDR-SB (Baseline was assigned the value of zero @ Week 0),"[3]; 2 mg daily dose, Week 12",−0.1352
same,CDR-SB (Baseline was assigned the value of zero @ Week 0),"[3]; 2 mg daily dose, Week 18",−0.1368
same,CDR-SB (Baseline was assigned the value of zero @ Week 0),"[3]; 2 mg daily dose, Week 23",−0.088
same,CDR-SB Effect Size,[3]; 2 mg dose versus Placebo,0.31
same,CDR-SB (Baseline was assigned the value of zero @ Week 0),"[3]; Add-On patients (stable donepezil or rivastigmine), 0.3 mg daily dose, Week 4",−0.2148
same,CDR-SB (Baseline was assigned the value of zero @ Week 0),"[3]; Add-On patients (stable donepezil or rivastigmine), 0.3 mg daily dose, Week 12",−0.1333
same,CDR-SB (Baseline was assigned the value of zero @ Week 0),"[3]; Add-On patients (stable donepezil or rivastigmine), 0.3 mg daily dose, Week 18",0.0576
same,CDR-SB (Baseline was assigned the value of zero @ Week 0),"[3]; Add-On patients (stable donepezil or rivastigmine), 0.3 mg daily dose, Week 23",0.4174
same,CDR-SB (Baseline was assigned the value of zero @ Week 0),"[3]; Add-On patients (stable donepezil or rivastigmine), 1 mg daily dose, Week 4",−0.2473
same,CDR-SB (Baseline was assigned the value of zero @ Week 0),"[3]; Add-On patients (stable donepezil or rivastigmine), 1 mg daily dose, Week 12",0.1511
same,CDR-SB (Baseline was assigned the value of zero @ Week 0),"[3]; Add-On patients (stable donepezil or rivastigmine), 1 mg daily dose, Week 18",0.2268
same,CDR-SB (Baseline was assigned the value of zero @ Week 0),"[3]; Add-On patients (stable donepezil or rivastigmine), 1 mg daily dose, Week 23",0.476
same,CDR-SB (Baseline was assigned the value of zero @ Week 0),"[3]; Add-On patients (stable donepezil or rivastigmine), 2 mg daily dose, Week 4",−0.236
same,CDR-SB (Baseline was assigned the value of zero @ Week 0),"[3]; Add-On patients (stable donepezil or rivastigmine), 2 mg daily dose, Week 12",−0.2247
same,CDR-SB (Baseline was assigned the value of zero @ Week 0),"[3]; Add-On patients (stable donepezil or rivastigmine), 2 mg daily dose, Week 18",−0.1084
same,CDR-SB (Baseline was assigned the value of zero @ Week 0),"[3]; Add-On patients (stable donepezil or rivastigmine), 2 mg daily dose, Week 23",−0.1633
same,CDR-SB (Baseline was assigned the value of zero @ Week 0),"[3]; de novo patients, 0.3 mg daily dose, Week 4",0.0816
same,CDR-SB (Baseline was assigned the value of zero @ Week 0),"[3]; de novo patients, 0.3 mg daily dose, Week 12",0.1082
same,CDR-SB (Baseline was assigned the value of zero @ Week 0),"[3]; de novo patients, 0.3 mg daily dose, Week 18",0.27
same,CDR-SB (Baseline was assigned the value of zero @ Week 0),"[3]; de novo patients, 0.3 mg daily dose, Week 23",0.3392
same,CDR-SB (Baseline was assigned the value of zero @ Week 0),"[3]; de novo patients, 1 mg daily dose, Week 4",−0.3161
same,CDR-SB (Baseline was assigned the value of zero @ Week 0),"[3]; de novo patients, 1 mg daily dose, Week 12",−0.3858
same,CDR-SB (Baseline was assigned the value of zero @ Week 0),"[3]; de novo patients, 1 mg daily dose, Week 18",−0.3763
same,CDR-SB (Baseline was assigned the value of zero @ Week 0),"[3]; de novo patients, 1 mg daily dose, Week 23",−0.288
same,CDR-SB (Baseline was assigned the value of zero @ Week 0),"[3]; de novo patients, 2 mg daily dose, Week 4",−0.133
same,CDR-SB (Baseline was assigned the value of zero @ Week 0),"[3]; de novo patients, 2 mg daily dose, Week 12",−0.1475
same,CDR-SB (Baseline was assigned the value of zero @ Week 0),"[3]; de novo patients, 2 mg daily dose, Week 18",−0.2625
same,CDR-SB (Baseline was assigned the value of zero @ Week 0),"[3]; de novo patients, 2 mg daily dose, Week 23",−0.1239
same,Cognition Composite Score (Baseline was assigned the value of zero @ Week 0),"[4]; 0.3 mg daily dose, Week 4",0.0036
same,Cognition Composite Score (Baseline was assigned the value of zero @ Week 0),"[4]; 0.3 mg daily dose, Week 12",0.0171
same,Cognition Composite Score (Baseline was assigned the value of zero @ Week 0),"[4]; 0.3 mg daily dose, Week 18",−0.0245
same,Cognition Composite Score (Baseline was assigned the value of zero @ Week 0),"[4]; 0.3 mg daily dose, Week 23",−0.0451
same,Cognition Composite Score (Baseline was assigned the value of zero @ Week 0),"[4]; 1 mg daily dose, Week 4",0.0042
same,Cognition Composite Score (Baseline was assigned the value of zero @ Week 0),"[4]; 1 mg daily dose, Week 12",0.0804
same,Cognition Composite Score (Baseline was assigned the value of zero @ Week 0),"[4]; 1 mg daily dose, Week 18",−0.0102
same,Cognition Composite Score (Baseline was assigned the value of zero @ Week 0),"[4]; 1 mg daily dose, Week 23",0.0287
same,Cognition Composite Score (Baseline was assigned the value of zero @ Week 0),"[4]; 2 mg daily dose, Week 4",−0.0084
same,Cognition Composite Score (Baseline was assigned the value of zero @ Week 0),"[4]; 2 mg daily dose, Week 12",0.0513
same,Cognition Composite Score (Baseline was assigned the value of zero @ Week 0),"[4]; 2 mg daily dose, Week 18",0.0915
same,Cognition Composite Score (Baseline was assigned the value of zero @ Week 0),"[4]; 2 mg daily dose, Week 23",0.1276
same,Cognition composite score Effect Size,[4]; [5],0.42
